From ChEMBL document CHEMBL1833844, “Sulfonamides as selective oestrogen receptor β agonists” (Bioorg Med Chem Lett, 2011)

Columns and labels:
Estrogen receptor beta [1] = molecular target: T1, Estrogen receptor beta (Homo sapiens, UniProt Q92731); assay: Agonist activity at ERbeta expressed in […] cells co-expressing beta-lactamase at 10 uM after 18 hrs by beta-lactamase reporter gene assay relative to estradiol; assay type: functional, cell-based
Estrogen receptor beta [2] = molecular target: T1, Estrogen receptor beta; assay: Agonist activity at ERbeta expressed in […] cells co-expressing beta-lactamase after 18 hrs by beta-lactamase reporter gene assay; assay type: functional, cell-based
[3] = molecular target: T2, Estrogen receptor (Homo sapiens) (UniProt P03372); assay: Agonist activity at ERalpha expressed in HEK cells co-expressing beta-lactamase at 10 uM after 18 hrs by beta-lactamase reporter gene assay relative to estradiol; assay type: functional, cell-based; settings: HEK293
T2 sequence (whole entry): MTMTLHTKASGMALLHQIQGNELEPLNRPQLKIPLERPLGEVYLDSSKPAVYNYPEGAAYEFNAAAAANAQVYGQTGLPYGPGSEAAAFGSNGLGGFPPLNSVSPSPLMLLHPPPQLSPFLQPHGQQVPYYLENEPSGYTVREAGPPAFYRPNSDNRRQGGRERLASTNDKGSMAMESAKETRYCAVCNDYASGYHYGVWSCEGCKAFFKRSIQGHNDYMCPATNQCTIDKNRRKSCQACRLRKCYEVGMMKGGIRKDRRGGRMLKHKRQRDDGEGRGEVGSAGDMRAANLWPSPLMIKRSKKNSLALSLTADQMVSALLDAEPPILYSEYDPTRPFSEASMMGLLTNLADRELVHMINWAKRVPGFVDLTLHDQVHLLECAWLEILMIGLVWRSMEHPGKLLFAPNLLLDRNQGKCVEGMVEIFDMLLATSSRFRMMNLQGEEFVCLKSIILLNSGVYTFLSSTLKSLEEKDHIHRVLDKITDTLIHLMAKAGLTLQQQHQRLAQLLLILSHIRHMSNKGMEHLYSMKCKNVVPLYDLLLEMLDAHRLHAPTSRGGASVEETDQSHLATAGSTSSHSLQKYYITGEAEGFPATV

Estrogen receptor = molecular target: T3, Estrogen receptor (Homo sapiens, UniProt P03372); assay: Agonist activity at ERalpha expressed in HEK cells co-expressing beta-lactamase after 18 hrs by beta-lactamase reporter gene assay; assay type: functional, cell-based, HEK293
T3 sequence (P03372 whole entry): T2 sequence (whole entry)

[4] = Octanol-buffer partition coefficient, log D of the compound at pH 7.4; assay type: physicochemical

T1 sequence (Q92731 whole entry): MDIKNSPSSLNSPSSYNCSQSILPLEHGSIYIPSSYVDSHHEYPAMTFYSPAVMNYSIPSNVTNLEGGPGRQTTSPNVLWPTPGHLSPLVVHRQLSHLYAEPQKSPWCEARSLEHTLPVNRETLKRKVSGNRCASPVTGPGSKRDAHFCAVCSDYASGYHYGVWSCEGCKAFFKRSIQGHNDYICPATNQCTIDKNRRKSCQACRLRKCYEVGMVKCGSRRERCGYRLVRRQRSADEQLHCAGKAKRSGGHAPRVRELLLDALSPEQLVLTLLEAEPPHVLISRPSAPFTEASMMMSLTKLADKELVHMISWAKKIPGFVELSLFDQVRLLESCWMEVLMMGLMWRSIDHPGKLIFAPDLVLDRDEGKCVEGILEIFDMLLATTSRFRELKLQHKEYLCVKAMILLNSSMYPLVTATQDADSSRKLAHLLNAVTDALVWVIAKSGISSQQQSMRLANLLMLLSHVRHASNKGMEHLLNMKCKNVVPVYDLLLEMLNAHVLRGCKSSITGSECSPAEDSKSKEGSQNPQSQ

| Emax (Estrogen receptor beta [1]) [%] | EC50 (Estrogen receptor beta [2]) [nM] | Emax [3] [%] | EC50 (Estrogen receptor) [nM] | logD [4] | Structure (SMILES) |
| --- | --- | --- | --- | --- | --- |
| 104 | 43 | 87 | 357 | – | O=S(=O)(c1ccc(O)cc1)N(CCC(F)(F)F)c1ccc(O)cc1 |
| 111 | > 3000 | 94 | 3500 | – | O=S(=O)(c1ccc(O)cc1)N1[C@@H]2CC[C@H]1C[C@H](CO)C2 |
| 73 | > 2400 | – | – | – | Cc1ccc(O)c(CCNS(=O)(=O)c2ccc(O)cc2)c1 |
| 48 | 79 | 107 | > 5400 | 2.7 | C[C@](O)(CN(C1CC1)S(=O)(=O)c1ccc(O)cc1)c1ccccc1 |
| < 20 | 110 | 85 | > 4560 | – | C[C@@](O)(CN(C1CC1)S(=O)(=O)c1ccc(O)cc1)c1ccccc1 |
| 49 | 1100 | – | > 3200 | – | CN(CC(C)(O)c1ccccc1)S(=O)(=O)c1ccc(O)cc1 (racemic) |
| 44 | 418 | 89 | > 2610 | 2.9 | CC(C)N(CC(C)(O)c1ccccc1)S(=O)(=O)c1ccc(O)cc1 (racemic) |
| < 30 | 84 | 82 | > 1100 | 3.4 | CCCCN(CC(C)(O)c1ccccc1)S(=O)(=O)c1ccc(O)cc1 (racemic) |
| 47 | 101 | 79 | 2310 | 2.5 | CC(O)(CN(C1CC1)S(=O)(=O)c1ccc(O)cc1)c1ccccc1 (racemic) |
| 43 | 14 | 66 | > 2680 | 3.2 | O=S(=O)(c1ccc(O)cc1)N(CC(O)(c1ccccc1)C(F)(F)F)C1CC1 (racemic) |
| 36 | 65 | 82 | > 6510 | 3.9 | CCCCC(O)(CN(C1CC1)S(=O)(=O)c1ccc(O)cc1)c1ccccc1 (racemic) |
| 49 | 48 | – | > 10000 | 3 | CC(O)(CN(C1CC1)S(=O)(=O)c1ccc(O)cc1)c1ccccc1F (racemic) |
| 45 | 51 | 75 | 3800 | 2.9 | CC(O)(CN(C1CC1)S(=O)(=O)c1ccc(O)cc1)c1c(F)cccc1F (racemic) |
| 86 | 1480 | – | > 10000 | 1.3 | CC(O)(CN(C1CC1)S(=O)(=O)c1ccc(O)cc1)c1cc[nH]n1 (racemic) |
| 82 | 437 | – | > 4800 | 2 | CC(O)(CN(C1CC1)S(=O)(=O)c1ccc(O)cc1)c1ccc(O)cc1 (racemic) |
